Patent publication US20250134869A1, “Pyrrolo[2,3-d]pyrimidinyl, Pyrrolo[2,3-b]pyrazinyl and Pyrrolo[2,3-d]pyridinyl Acryla-mides” (Pfizer Inc, priority 2021, published 2025)
Like-named read-outs stand apart in the source and are kept apart here.

Legend:
[1] = biological target: JAK3 enzyme (Homo sapiens (Human), UniProt P52333); assay: JAK Caliper Enzyme Assay at 4 μM or 1 mM ATP; format: biochemical
[2] = system: IL-15 induced P-STAT5 in human PBMC; assay: PBMC IL-15 induced P-STAT5; format: cell-based; conditions: human PBMC, IL-15 stimulated, read-out: PBMC IL15-pSTAT5 IC50
Method: PBMC IL-15 Induced P-STAT5
Frozen human PBMC (200-250 million cells/vial) was thawed at 37° C. The cells were transferred to 10 mL warm medium in a 50-mL conical tube, and centrifuged at 1,200 RPM at room temperature for 5 min. The supernatant was aspirated. […] After adding 47 ml D-PBS (37° C.) to PBMC/FBS suspension, centrifuging at 1,200 RPM at room temperature for 5 min, and aspirating the supernatant, the cells were resuspended in 20 mL warm RPMI medium. Ninety μL of cell suspension were pipetted per well in a 96-well, deep-well, V-bottom plate, and the plate was incubated at 37° C. for 30 min. […] After adding 0.8 mL staining buffer per well, the plates were centrifuged at 1,200 RPM (Beckman GS-6R or Sorvall Legend) at room temperature for 5 min, and again the supernatant was aspirated using a 8-channel or 12-channel manifold. The plate was vortexed, and 0.35 mL 90% methanol/10% H2O (−20° C.) was added per well, and the plate incubated on ice for 20 min. After again adding 0.8 mL staining buffer per well, the plates were centrifuged at 1,200 RPM (Beckman GS-6R or Sorvall Legend) at room temperature for 5 min, and again the supernatant was aspirated using a 8-channel or 12-channel manifold, and then 0.8 mL Staining buffer was added per well. After once again adding 0.8 mL staining buffer per well, the plates were centrifuged at 1,200 RPM (Beckman GS-6R or Sorvall Legend) at room temperature for 5 min, and again the supernatant was aspirated using a 8-channel or 12-channel manifold. […] Samples of 250 μL/well were transferred to a 96-well U-bottom plate, and the FACS analysis was performed gating on total lymphocytes. Samples were analyzed using a BD Calibur™ or BD FACSCanto™ flow cytometer equipped with the BD High Throughput Sampler.

[3] = read-out: JAK3 (4 μM ATP) IC50, 4 μM ATP
[4] = read-out: JAK3 (1 mM ATP) IC50, 1 mM ATP

Sequence of JAK3 enzyme (P52333 whole entry, species assumed): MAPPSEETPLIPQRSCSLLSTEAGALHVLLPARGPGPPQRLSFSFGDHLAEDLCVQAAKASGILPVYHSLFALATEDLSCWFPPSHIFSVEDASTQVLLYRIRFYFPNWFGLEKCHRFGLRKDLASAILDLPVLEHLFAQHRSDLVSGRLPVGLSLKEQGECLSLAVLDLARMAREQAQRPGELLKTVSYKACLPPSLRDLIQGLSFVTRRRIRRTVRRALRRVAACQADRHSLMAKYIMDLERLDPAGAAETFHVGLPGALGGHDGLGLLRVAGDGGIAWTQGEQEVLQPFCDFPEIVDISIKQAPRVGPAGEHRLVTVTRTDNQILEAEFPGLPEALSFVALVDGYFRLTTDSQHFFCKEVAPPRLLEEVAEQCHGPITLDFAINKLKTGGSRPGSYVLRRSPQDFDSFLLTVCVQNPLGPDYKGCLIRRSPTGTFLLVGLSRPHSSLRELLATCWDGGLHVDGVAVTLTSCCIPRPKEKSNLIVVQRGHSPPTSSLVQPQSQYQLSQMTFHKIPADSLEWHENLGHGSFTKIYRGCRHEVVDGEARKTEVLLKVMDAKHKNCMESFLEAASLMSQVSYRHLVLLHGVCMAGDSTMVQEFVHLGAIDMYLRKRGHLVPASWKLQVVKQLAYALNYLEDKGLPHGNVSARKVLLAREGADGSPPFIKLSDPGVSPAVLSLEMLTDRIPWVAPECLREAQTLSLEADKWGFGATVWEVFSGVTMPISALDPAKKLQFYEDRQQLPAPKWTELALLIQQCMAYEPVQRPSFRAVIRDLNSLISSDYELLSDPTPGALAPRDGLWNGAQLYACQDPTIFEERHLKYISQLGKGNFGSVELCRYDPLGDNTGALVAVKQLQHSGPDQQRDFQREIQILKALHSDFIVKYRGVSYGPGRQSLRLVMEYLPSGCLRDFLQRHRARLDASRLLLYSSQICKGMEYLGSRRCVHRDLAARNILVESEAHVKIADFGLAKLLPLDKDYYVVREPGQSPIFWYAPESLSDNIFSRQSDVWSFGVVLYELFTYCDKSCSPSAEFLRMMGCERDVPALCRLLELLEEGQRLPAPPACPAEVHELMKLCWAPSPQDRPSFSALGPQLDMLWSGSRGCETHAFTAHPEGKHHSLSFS

Row | SMILES | IC50 [1, 3] [nM] | IC50 [1, 4] [nM] | IC50 [2] [nM] | IC50 ([2]; Homo sapiens, PBMC) [nM]
1 | C=CC(=O)N1CC[C@H](O)[C@@H](Nc2ncnc3[nH]ccc23)C1 (racemic) [Example 113, rac-1-[(3S,4S)-4-Hydroxy-3-(7H-pyrrolo[2,3-d]pyrimidin-4-ylamino)piperidin-1-yl]prop-2-en-1-one] | – | – | > 10000 | –
2 | C=CC(=O)N1CCC[C@@H](Nc2ncnc3[nH]cc(-c4cnn(C)c4)c23)C1 [Example 28, 1-[(3R)-3-{[5-(1-methyl-1H-pyrazol-4-yl)-7H-pyrrolo[2,3-d]pyrimidin-4-yl]amino}piperidin-1-yl]prop-2-en-1-one] | 48.2 | 358 | > 10000 | –
3 | C=CC(=O)N1CCC[C@@H](Nc2ccnc3[nH]cc(C)c23)C1 [Example 47, 1-{(3R)-3-[(3-methyl-1H-pyrrolo[2,3-b]pyridin-4-yl)amino]piperidin-1-yl}prop-2-en-1-one] | 4 | 608 | 1080 | –
4 | C=CC(=O)N1CC[C@@H]2CCN(c3ncnc4[nH]ccc34)[C@H]2C1 [Example 49, 1-[(3aS,7aR)-1-(7H-Pyrrolo[2,3-d]pyrimidin-4-yl)octahydro-6H-pyrrolo[2,3-c]pyridin-6-yl]prop-2-en-1-one] | – | – | 355 | –
5 | C=CC(=O)N1CC(Nc2ncnc3[nH]ccc23)CCC1CO (centres unmarked) [Example 52, 1-[2-(Hydroxymethyl)-5-(7H-pyrrolo[2,3-d]pyrimidin-4-ylamino)piperidin-1-yl]prop-2-en-1-one] | – | – | > 354 | –
6 | C=CC(=O)N1CCCC(C)(Nc2ncnc3[nH]ccc23)C1 (centres unmarked) [Example 71, 1-(3-((7H-Pyrrolo[2,3-d]pyrimidin-4-yl)amino)-3-methylpiperidin-1-yl)prop-2-en-1-one] | – | – | – | > 10000
7 | C=CC(=O)N1CCC[C@@](C)(Nc2ncnc3[nH]ccc23)C1 [Example 72, (R)-1-(3-((7H-pyrrolo[2,3-d]pyrimidin-4-yl)amino)-3-methylpiperidin-1-yl)prop-2-en-1-one] | – | – | – | > 10000
8 | C=CC(=O)N1CC[C@H]2CCN(c3ncnc4[nH]ccc34)[C@H]2C1 [Example 76, 1-[(3aR,7aR)-1-(7H-Pyrrolo[2,3-d]pyrimidin-4-yl)octahydro-6H-pyrrolo[2,3-c]pyridin-6-yl]prop-2-en-1-one] | – | – | > 6080 | –
9 | O=C(/C=C/C(F)(F)F)N1CC[C@@H]2CCN(c3ncnc4[nH]ccc34)[C@@H]2C1 [Example 81, (2E)-4,4,4-trifluoro-1-[(3aS,7aS)-1-(7H-pyrrolo[2,3-d]pyrimidin-4-yl)octahydro-6H-pyrrolo[2,3-c]pyridin-6-yl]but-2-en-1-one] | – | – | – | > 4000
10 | C=CC(=O)N1CC[C@@H]2OCCN(c3ncnc4[nH]ccc34)[C@@H]2C1 [Example 90, 1-[(4aR,8aS)-4-(7H-Pyrrolo[2,3-d]pyrimidin-4-yl)hexahydro-2H-pyrido[4,3-b][1,4]oxazin-6 (5H)-yl]prop-2-en-1-one] | – | – | – | > 10000
11 | C=C(CN(C)C)C(=O)N1CCC[C@@H](Nc2ncnc3[nH]ccc23)C1 [Example 92, 2-[(dimethylamino)methyl]-1-[(3R)-3-(7H-pyrrolo[2,3-d]pyrimidin-4-ylamino)piperidin-1-yl]prop-2-en-1-one] | – | – | > 10000 | –
12 | C=CC(=O)N1CC[C@@H]2OCCN(c3ncnc4[nH]ccc34)[C@H]2C1 [Example 119, 1-[(4aS,8aS)-4-(7H-Pyrrolo[2,3-d]pyrimidin-4-yl)hexahydro-2H-pyrido[4,3-b][1,4]oxazin-6 (5H)-yl]prop-2-en-1-one] | – | – | > 10000 | –
13 | C=CC(=O)N1CCC(Oc2cnc3[nH]cc(-c4cncc(C#N)c4)c3n2)CC1 [Example 225, 5-{2-[(1-acryloylpiperidin-4-yl)oxy]-5H-pyrrolo[2,3-b]pyrazin-7-yl}pyridine-3-carbonitrile] | 1.4 | 120 | 2910 | –

Further lines, with some results ahead:

Row | IC50 [1, 3] [nM] | IC50 [1, 4] [nM] | SMILES | IC50 [2] [nM] | IC50 ([2]; Homo sapiens, PBMC) [nM]
14 | 5.3 | 996 | C=CC(=O)N1CC[C@@H](O)[C@@H](Nc2ncnc3[nH]ccc23)C1 (racemic) [Example 64, 1-[(3S,4R)-4-Hydroxy-3-(7H-pyrrolo[2,3-d]pyrimidin-4-ylamino)piperidin-1-yl]prop-2-en-1-one] | 4640 | –
15 | 3.2 | 403 | C=CC(=O)N1CC[C@]2(C)CCN(c3ncnc4[nH]ccc34)[C@@H]2C1 [Example 59, 1-((3aS,7aS)-3a-Methyl-1-(7H-pyrrolo[2,3-d]pyrimidin-4-yl)hexahydro-1H-pyrrolo[2,3-c]pyridin-6 (2H)-yl)prop-2-en-1-one] | – | > 2550
16 | 387 | > 10000 | C=CC(=O)N1C[C@H](OC)C[C@@H](N(C)c2ncnc3[nH]ccc23)C1 [Example 78, 1-{(3R,5R)-3-Methoxy-5-[methyl(7H-pyrrolo[2,3-d]pyrimidin-4-yl)amino]piperidin-1-yl}prop-2-en-1-one] | > 10000 | –
17 | 57.2 | 5290 | CN(C)C/C=C/C(=O)N1CC[C@@H]2CCN(c3ncnc4[nH]ccc34)[C@@H]2C1 [Example 82, (2E)-4-(dimethylamino)-1-[(3aS,7aS)-1-(7H-pyrrolo[2,3-d]pyrimidin-4-yl)octahydro-6H-pyrrolo[2,3-c]pyrdin-6-yl]but-2-en-1-one] | > 7300 | –
18 | 35.2 | 3940 | C=CC(=O)N1CC[C@@H]2CCN(c3ncnc4[nH]cc(CCOC)c34)[C@@H]2C1 [Example 89, 1-{(3aS,7aS)-1-[5-(2-Methoxyethyl)-7H-pyrrolo[2,3-d]pyrimidin-4-yl]octahydro-6H-pyrrolo[2,3-c]pyridin-6-yl}prop-2-en-1-one] | > 6160 | –
19 | 703 | > 10000 | C=C(CO)C(=O)N1CCC[C@@H](Nc2ncnc3[nH]ccc23)C1 [Example 93, 2-(hydroxymethyl)-1-[(3R)-3-(7H-pyrrolo[2,3-d]pyrimidin-4-ylamino)piperidin-1-yl]prop-2-en-1-one] | > 10000 | –
20 | 802 | > 10000 | C=C(COC)C(=O)N1CCC[C@@H](Nc2ncnc3[nH]ccc23)C1 [Example 94, 2-(methoxymethyl)-1-[(3R)-3-(7H-pyrrolo[2,3-d]pyrimidin-4-ylamino)piperidin-1-yl]prop-2-en-1-one] | > 10000 | –
21 | 692 | > 10 | C=CC(=O)c1c[nH]c2ncnc(N[C@H]3CN(C(=O)C=C)CC[C@H]3F)c12 [Example 120, 1-(4-{[(3S,4R)-1-Acryloyl-4-fluoropiperidin-3-yl]amino}-7H-pyrrolo[2,3-d]pyrimidin-5-yl)prop-2-en-1-one] | > 10000 | –
22 | 1 | 91 | C=CC(=O)N1CCC(Oc2cnc3[nH]cc(-c4ccc(F)nc4)c3n2)CC1 [Example 226, 1-(4-{[7-(6-fluoropyridin-3-yl)-5H-pyrrolo[2,3-b]pyrazin-2-yl]oxy}piperidin-1-yl)prop-2-en-1-one] | 699 | –
23 | 1.6 | 222 | C=CC(=O)N1C[C@@H](C)N(c2cnc3[nH]cc(C(=O)NC(C)C)c3n2)[C@@H](C)C1 [Example 328, 2-[(2R,6S)-4-acryloyl-2,6-dimethylpiperazin-1-yl]-N-(propan-2-yl)-5H-pyrrolo[2,3-b]pyrazine-7-carboxamide] | – | –
24 | 622 | – | C=CC(=O)N1CC[C@@H](Nc2cnc3[nH]ccc3n2)C1 [Example 335, (R)-1-(3-((5H-Pyrrolo[2,3-b]pyrazin-2-yl)amino)pyrrolidin-1-yl)prop-2-en-1-one] | > 10000 | –
25 | 30.6 | 3400 | C=CC(=O)N1CC[C@H](Nc2cnc3[nH]ccc3n2)C1 [Example 336, (S)-1-(3-((5H-Pyrrolo[2,3-b]pyrazin-2-yl)amino)pyrrolidin-1-yl)prop-2-en-1-one] | > 10000 | –
26 | 1.1 | 95.6 | C=CC(=O)N1CC(Nc2cnc3[nH]ccc3n2)C1 [Example 337, 1-(3-((5H-Pyrrolo[2,3-b]pyrazin-2-yl)amino)azetidin-1-yl)prop-2-en-1-one] | – | –
27 | 0.2 | 17.5 | C=CC(=O)N1CCC(Oc2cnc3[nH]cc(C(=O)NC(C)C)c3n2)CC1 [Example 339, 2-((1-Acryloylpiperidin-4-yl)oxy)-N-isopropyl-5H-pyrrolo[2,3-b]pyrazine-7-carboxamide] | – | –
28 | 0.1 | 3.4 | C#CCNC(=O)c1c[nH]c2ncc(NC3CCN(C(=O)C=C)CC3)nc12 [Example 343, 2-((1-Acryloylpiperidin-4-yl)amino)-N-(prop-2-yn-1-yl)-5H-pyrrolo[2,3-b]pyrazine-7-carboxamide] | – | –
